{
  "source": "patent US20230340037A1",
  "about": "“INHIBITORS OF ?-SYNUCLEIN AGGREGATION AND USES THEREOF” (U[…] DE BARCELONA, priority 2020, published 2023)",
  "key": {"[1]": {"system": "SH-SY5Y neuroblastoma cells", "assay": "Toxic a-synuclein oligomer induced increase of intracellular reactive oxygen species", "type": "cell-based, human", "protocol": "A stock solution of 80 μM toxic a-synuclein oligomer (prepared as described in example 3) and a stock solution of 80 μM toxic a-synuclein oligomer and 80 μM of the tested inhibitor are prepared in PBS and incubated for 15 min at 20° C. before being added to cell-containing wells as described below.\nHuman SH-SY5Y neuroblastoma cells (ATCC, #CRL-2266) cultured in growth medium (Eagle's Minimum Essential Medium (EMEM) supplemented with 10% […] (FBS)) are seeded onto a glass slide mounted with 8 removable wells (e.g., Nunc Lab-Tek II Chamber Slide System, #154941) with 0.5 mL cells/well at 0.5×10^6 cells/mL in growth medium for 24 h at 37° C. and 5% C02. […]\nThen, a fluorogenic reagent for oxidative stress detection in live cells (e.g., a CellRox® reagent from Invitrogen, Carlsbad, USA, such as CellRox® Green) is added (final concentration of CellRox® Green 5 μM). […] The intracellular fluorescence of the treated SH-SY5Y cells is then analyzed with a confocal microscope (e.g. a Leica TCS SP5, Leica Microsystems, Wetzlar, Germany, with a HCX PL APO 63×1.4 oil immersion objective) equipped with a camera, using wave lengths for excitation and detection which are suitable for the used oxidative stress detection agent (for CellRox® Green: excitation at 488 nm and detection at 515-560 nm). […] ROS fluorescence are calculated from mean of 100 cells."}, "[2]": {"molecular_target": "T1, non-toxic a-synuclein oligomer (type A*) (Homo sapiens, UniProt P37840, N122C)", "T1 construct": "made in house; host or cells: Escherichia coli BL21 (DE3), pET21a", "assay": "dcFCCS and smFRET analysis of binding to non-toxic a-synuclein oligomer", "conditions": "peptide labeled with Atto647N"}, "a-synuclein monomer": {"molecular_target": "T2, a-synuclein monomer (Homo sapiens, UniProt P37840, N122C)", "T2 construct": "made in house; host or cells: Escherichia coli BL21 (DE3), pET21a", "assay": "dcFCCS and smFRET analysis of binding to a-synuclein monomer", "conditions": "peptide labeled with Atto647N", "protocol": "(§1) The relative binding affinities of inhibitors of the present disclosure to toxic a-synuclein oligomers, a-synuclein fibrils, and monomeric a-synuclein can be determined via […] (dcFCCS) as follows.\n(§2) Dual-Colour FCCS (dcFCCS) experiments are performed on a Time-Resolved Fluorescence confocal microscope (e.g., MT200 from PicoQuant, Berlin, Germany) with a Time-Correlated Single Photon Counting (TCSPC) unit. Pulsed Interleaved Excitation (PIE) is used at laser powers of 6 μW (481 nm) and 5 μW (637 nm) measured after the dichroic mirror for optimal count rates while avoiding photobleaching and saturation. The coverslip is placed directly on the immersion water on top of the objective (e.g., Super Apochromat 60×NA 1.2 objective with a correction collar). The dichroic 488/640 nm is chosen as the main beam splitter. A 50 μm pinole is used. The emission light beam is split by a 50/50 beamsplitter into 2 detection paths. […] The software is also used for fitting the FCS and FCCS data as well as for a PIE-FRET analysis of the data from which the FRET efficiency (E) is calculated.\n(§3) The binding of inhibitors of the present disclosure to toxic a-synuclein oligomers, a-synuclein fibrils, and monomeric a-synuclein can be determined via Förster resonance energy transfer (smFRET) as follows. […]"}, "[3]": {"molecular_target": "T3, toxic a-synuclein oligomer (type B*) (Homo sapiens, UniProt P37840, N122C)", "T3 construct": "made in house; host or cells: Escherichia coli BL21 (DE3), pET21a", "assay": "dcFCCS and smFRET analysis of binding to toxic a-synuclein oligomer", "conditions": "peptide labeled with Atto647N; cross-correlation signal and smFRET events", "protocol": "as §1, §2, §3"}, "a-synuclein fibrils": {"molecular_target": "T4, a-synuclein fibrils (Homo sapiens, UniProt P37840, N122C)", "T4 construct": "made in house; host or cells: Escherichia coli BL21 (DE3), pET21a", "assay": "dcFCCS and smFRET analysis of binding to a-synuclein fibrils", "conditions": "peptide labeled with Atto647N; cross-correlation signal and smFRET events", "protocol": "as §1, §2, §3"}, "a-synuclein": {"molecular_target": "T5, a-synuclein (Homo sapiens, UniProt P37840)", "T5 construct": "made in house; host or cells: Escherichia coli BL21 (DE3), pET21a", "assay": "a-synuclein aggregation kinetics assay (thioflavin-T)", "type": "biochemical", "conditions": "70 μM a-synuclein, Th-T, equimolar and substoichiometric peptide concentrations, 32 h", "protocol": "a-synuclein aggregation can be monitored as described in Pujols et al., 2018. Specifically, inhibition of in vitro a-synuclein aggregation at equimolar concentrations of a-synuclein and the tested inhibitor can be determined as follows:\nA 96 well microtiter plate is prepared to contain, in each well, a Teflon polyball (3.175 mm in diameter, e.g., from Polysciences Europe GmbH, Eppelheim, Germany) and 150 μl of PBS containing 70 μM a-synuclein (prepared from diluting the 0.22 μm-filtered 210 μM a-synuclein solution described in example 1), 40 μM thioflavin-T and 70 μM of the tested inhibitor. 150 μl/well of PBS containing 70 μM a-synuclein and 40 μM thioflavin-T is used as a control. […] Every two hours, the fluorescence intensity is measured (e.g. using a Victor3.0 Multilabel Reader, PerkinElmer Waltham, MA, USA) by exciting the mixtures at 430-450 nm and measuring the emission intensity at 480-510 nm. […]\nParallel wells (e.g. triplicates) are prepared for each tested inhibitor and the control. For the measurement of each time interval, the measured fluorescence intensity of the respective parallel wells is averaged and then normalized to the maximum fluorescence of the control (a-synuclein without inhibitor) and fitted to the Finke-Watzky curve, accounting for fibril elongation and secondary nucleation. […]"}},
  "data": [
    {"molecule": "CSCC[C@H](N)C(=O)N[C@@H](CCC(=O)O)C(=O)N[C@@H](Cc1ccccc1)C(=O)N[C@H](C(=O)N[C@@H](C)C(=O)N[C@@H](CCCCN)C(=O)N[C@@H](CC(C)C)C(=O)N[C@@H](Cc1ccccc1)C(=O)N[C@@H](CCCCN)C(=O)N[C@@H](Cc1ccccc1)C(=O)N[C@@H](Cc1ccccc1)C(=O)N[C@@H](CCCCN)C(=O)N[C@@H](CC(=O)O)C(=O)N[C@@H](CC(C)C)C(=O)N[C@@H](CC(C)C)C(=O)NCC(=O)N[C@@H](CCCCN)C(=O)N[C@@H](Cc1ccccc1)C(=O)N[C@@H](CC(C)C)C(=O)NCC(=O)N[C@@H](CC(N)=O)C(=O)N[C@@H](CC(N)=O)C(=O)O)C(C)C", "note": "[PSMα3]", "values": [
      {"measurement": "cytotoxicity of toxic aS oligomers", "setting": "[1]; neuroblastoma cell culture", "value": "reduced cytotoxicity"}
    ]},
    {"molecule": "LL-37", "values": [
      {"measurement": "generation of reactive oxygen species", "setting": "[1]; coincubated with a-synuclein toxic oligomers, 10 μM", "value": "reduce the generation of reactive oxygen species"},
      {"measurement": "interaction with non-toxic a-synuclein oligomer", "setting": "[2]", "value": "not"},
      {"measurement": "interaction with a-synuclein monomer", "setting": "a-synuclein monomer", "value": "not"},
      {"measurement": "interaction with toxic a-synuclein oligomer", "setting": "[3]", "value": "interact with"},
      {"measurement": "interaction with a-synuclein fibrils", "setting": "a-synuclein fibrils", "value": "interact with"},
      {"measurement": "inhibition of a-synuclein aggregation", "setting": "a-synuclein", "value": "inhibit a-synuclein aggregation"}
    ]}
  ]
}
